Data on three compounds can be found in patent US6939888B2, “1-H-3-arylpirrolidine-2,4-dione derivatives” (Bayer Aktiengesellschaft, priority 1994, dated 2005).

The subject of assay [1] is caterpillars of the diamond-back moth (Plutella maculipennis). As to the kind of experiment: Plutella test (cabbage leaf dip). Particulars: after 7 days; concentration of active compound 0.001%; cabbage leaves (Brassica olearacea) dipped. It is filed as in vivo. The method, then: Plutella Test [table] To produce a suitable preparation of active compound, 1 part by weight of active compound is mixed with the stated amount of solvent and the stated amount of emulsifier, and the concentrate is diluted with water to the desired concentration. Cabbage leaves (Brassica olearacea) are treated by being dipped into the preparation of active compound of the desired concentration and are infested with caterpillars of the diamond-back moth (Plutella maculipennis) while the leaves are still moist. After the specified periods of time, the destruction in % is determined. 100% means that all the caterpillars have been killed; 0% means that none of the caterpillars have been killed.

Assay [2] concerns greenhouse red spider mite (Tetranychus urticae). As to the kind of experiment: Tetranychus test (OP resistant), sprayed bean plants. Particulars: after 7 days; concentration of active compound 0.00016%; bean plants (Phaseolus vulgaris) sprayed, all development stages. It is filed as in vivo. The protocol:
Tetranychus Test (OP Resistant)
To produce a suitable preparation of active compound, 1 part by weight of active compound is mixed with the stated amount of solvent and the stated amount of emulsifier, and the concentrate is diluted with emulsifier-containing water to the desired concentration.
Bean plants (Phaseolus vulgaris) which are severely infested with all development stages of the greenhouse red spider mite (Tetranychus urticae) are sprayed with a preparation of active compound of the desired concentration.
After the specified periods of time, the destruction in % is determined. 100% means that all the spider mites have been killed; 0% means that none of the spider mites have been killed.

In turn, `CC(=O)OC1=C(c2c(C)cc(C)cc2C)C(=O)NC12CCCCC2` [(B)] showed a destruction rate in assay [1] of 10%. Take `CC(C)C1(C)NC(=O)C(c2ccc(Cl)cc2Cl)=C1OC(=O)C(C)(C)C` (stereo not drawn) [(D)]: the destruction rate result in assay [2] was “no destruction”. In the case of `CCOC(=O)OC1=C(c2ccc(Cl)cc2Cl)C(=O)NC1(C)C(C)C` (stereo not drawn) [(E)], the destruction rate result in assay [2] is “no destruction”.
